The source of these data is patent US5653957A, “Halogenated sulfidohydroboranes for nuclear medicine and boron neutron capture therapy” (Associated Universities, Inc., priority 1996, dated 1997).

The conditions of data set [1]: mouse, in vivo.
Protocol: Three groups of female mice (BNL Hale-Stoner strain) were given a single intraperitoneal (i.p.) injection of:
Injection volumes were all 0.015 mL/gbw. Five days after the injection, mice were euthanized by deep halothane inhalation anesthesia. Thoracotomy was performed, and about 0.7-0.9 mL blood was removed through the right ventricle. Hematological and chemical analyses were performed on blood specimens from each mouse.
(mg/dL), blood urea nitrogen [BUN] (mg/dL), blood creatinine [BCR] (mg/dL) aspartate transaminase [AST] (U/L), alanine transaminase [ALT] (U/L), alkaline phosphatase [ALP] (U/L), creatine phosphokinase [CPK] (U/L), total protein [TPR] (g/dL), albumin [ALB] (g/dL), calcium [CA] (mg/dL), chloride [CHL] (meg/L), inorganic phosphorus [P] (mg/dL), potassium [K] (meg/L), and sodium [SOD] (meg/L) .
For data set [2], the system named is mice. Put plainly: Subacute toxicity in mice judged by hematological and chemical tests of the blood 5 days after i.p. injection. The class given is in vivo, female mice (BNL Hale-Stoner strain). The protocol:
C) 0.9% NaCl in water (saline) (7 mice).
Injection volumes were all 0.015 mL/gbw.
Inadvertently,the BSSB group (Group A) received 17 μg ^10 B/gbw, only about one-third of the intended boron dose, 50 μg/gbw. Nevertheless, it is useful to compare the subacute toxicity of a relatively high dose of a substance, IBSSB, which had never before been tested in an animal, with that of its parent compound, BSSB, which is known to be non-lethal at about 35 μg B/gbw, i.e., twice the lower of the two boron doses used See Slatkin et al., "Boron Uptake in Melanoma, Cerebrum and Blood from Na2 B12 H11 SH and Na4 B24 H22 S2 Administered to Mice", Biochem. Pharm., 35, 1771 (1986).
See Miura et al., "Biodistribution and Toxicity of 2,4-Divinyl-nido-carboranyldeuterophorphyrin IX in Mice". Biochem. Pharm., 43, 467 (1992). It therefore appears that the periodinated borane is not more toxic than the non-iodinated borane.

Another data set relates to brain tumors. To be noted: mouse, in vivo; cited from earlier work.
For data set [3], the system named is mice. To be noted: at about 35 μg B/gbw; cited from earlier work.

Consider “periodinated dimeric sulfidohydrododecaborane [IBSSB]”, for which, in data set [1], the “alanine transaminase [ALT]” value was 22 U/L, the “albumin [ALB]” value is recorded as 3.3 g/dL, the “alkaline phosphatase [ALP]” value worked out at 110 U/L and the “aspartate transaminase [AST]” value is 44 U/L. Besides, in data set [1], the “blood creatinine [BCR]” value was found to be 0.5 mg/dL, the “blood urea nitrogen [BUN]” value was determined as 28 mg/dL, the “calcium [CA]” value is on record as 11.5 mg/dL and the “chloride [CHL]” value was 116 meg/L. Moreover, in data set [1], the “creatine phosphokinase [CPK]” value amounted to 35 U/L, the “glucose [GLU]” value is recorded as 278 mg/dL, the “inorganic phosphorus [P]” value turned out to be 9.9 mg/dL and the “potassium [K]” value is 7.1 meg/L. For the same substance, in data set [1], the “sodium [SOD]” value is on record as 154 meg/L and the “total protein [TPR]” value was found to be 5.9 g/dL. Also, in the data set on mice [2] (mouse, in vivo), the “fourteen chemical and thirteen hematological tests, BSSB (Group A) vs IBSSB (Group B)” value is listed as “no significant differences between the two groups”; the hepatotoxicity result was “may be slightly hepatotoxic to mice”; the “other differences between mice in groups B and C” value is listed as “No other differences were noted”; the significant toxicity entry is listed as “no evidence of significant toxicity”. For the same substance, in the data set on mice [2] (single i.p. 50 μg B/gbw, vs three-fold less BSSB, 5 days later), the “toxicity judged by hematological and chemical tests of the blood, vs BSSB” value is given as “only minimally more toxic”.

Take BSSB: the “accumulation in brain tumors vs the monomeric form” value with brain tumors is on record as “more readily accumulated in brain tumors than the monomeric form”. Also, the “fourteen chemical and thirteen hematological tests, BSSB (Group A) vs IBSSB (Group B)” value with mice [2] (mouse, in vivo) is given as “no significant differences between the two groups”. In addition, the lethality result in the data set with mice [3] was “non-lethal”.
